Columns and labels:
[1] = test system: IPOHE (Morningglory, Ivyleaf); assay: Preemergence herbicidal evaluation; assay type: in vivo, Ipomoea hederacea, (L) Jacq.; conditions: rated about 2-4 weeks after treatment, scale 0-9
Description: (§1) In these tests, seeds of a variety of monocotyledonous and dicotyledonous plants are separately mixed with potting soil and planted on top of approximately one inch of soil in separate pint cups. After planting, the cups are sprayed with the selected aqueous acetone solution containing test compound in sufficient quantity to provide the equivalent of about 0.0125 to 0.800 kg per hectare of test compound per cup. The treated cups are then placed on greenhouse benches, watered and cared for in accordance with conventional greenhouse procedures. Approximately two—four weeks after treatment, the tests are terminated and each cup is examined and rated according to the rating system provided in Example 6.

[2] = test system: PANDI (Panicum, Fall); assay: Postemergence herbicidal evaluation; assay type: in vivo, Panicum dichotomiflorum, Michx.; conditions: rated about 2-3 weeks after treatment, scale 0-9, averaged
Method: (§2) Seedling plants are grown in jiffy flats for about two weeks. The test compounds are dispersed in 80/20 (v/v) acetone/water mixtures containing 1.0% SUN-IT® II, a methylated seed oil, in sufficient quantities to provide the equivalent of about 0.006 kg/ha to 0.800 kg/ha of active compound when applied to the plants through a spray nozzle operating at 40 psi for a predetermined time. After spraying, the plants are placed on greenhouse benches and are cared for in accordance with conventional greenhouse procedures. Approximately two—three weeks after treatment, the seedling plants are examined and rated according to the rating system set forth below. Where more than one test is involved for a given compound, the data are averaged.

[3] = test system: ABUTH (Velvetleaf); assay: Preemergence herbicidal evaluation; assay type: in vivo, Abutilon theophrasti, Medic.; conditions: rated about 2-4 weeks after treatment, scale 0-9
Description: as §1

[4] = test system: ABUTH (Velvetleaf); assay: Postemergence herbicidal evaluation; assay type: in vivo, Abutilon theophrasti, Medic.; conditions: rated about 2-3 weeks after treatment, scale 0-9, averaged
Method: as §2

[5] = test system: AMBEL (Ragweed, Common); assay: Preemergence herbicidal evaluation; assay type: in vivo, Ambrosia artemisifolia, L.; conditions: rated about 2-4 weeks after treatment, scale 0-9
Description: as §1

[6] = test system: PANDI (Panicum, Fall); assay: Preemergence herbicidal evaluation; assay type: in vivo, Panicum dichotomiflorum, Michx.; conditions: rated about 2-4 weeks after treatment, scale 0-9
Description: as §1

[7] = test system: ZEAMX (Corn, Field); assay: Preemergence herbicidal evaluation (crop); assay type: in vivo, Zea mays, L.
Description: as §1

[8] = test system: AMBEL (Ragweed, Common); assay: Postemergence herbicidal evaluation; assay type: in vivo, Ambrosia artemisifolia, L.; conditions: rated about 2-3 weeks after treatment, scale 0-9, averaged
Method: as §2

[9] = test system: SETVI (Foxtail, Green); assay: Preemergence herbicidal evaluation; assay type: in vivo, Setaria viridis, (L.) Beau; conditions: rated about 2-4 weeks after treatment, scale 0-9
Description: as §1

[10] = test system: SETVI (Foxtail, Green); assay: Postemergence herbicidal evaluation; assay type: in vivo, Setaria viridis, (L.) Beau; conditions: rated about 2-3 weeks after treatment, scale 0-9, averaged
Method: as §2

[11] = test system: ECHCG (Barnyardgrass); assay: Preemergence herbicidal evaluation; assay type: in vivo, Echinochloa crus-galli, (L.) Beau; conditions: rated about 2-4 weeks after treatment, scale 0-9
Description: as §1

[12] = test system: ECHCG (Barnyardgrass); assay: Postemergence herbicidal evaluation; assay type: in vivo, Echinochloa crus-galli, (L.) Beau; conditions: rated about 2-3 weeks after treatment, scale 0-9, averaged
Method: as §2

[13] = test system: IPOHE (Morningglory, Ivyleaf); assay: Postemergence herbicidal evaluation; assay type: in vivo, Ipomoea hederacea, (L) Jacq.; conditions: rated about 2-3 weeks after treatment, scale 0-9, averaged
Method: as §2

[14] = test system: ZEAMX (Corn, Field); assay: Postemergence herbicidal evaluation (crop); assay type: in vivo, Zea mays, L.; conditions: rated about 2-3 weeks after treatment, scale 0-9, averaged
Method: as §2

| Structure (SMILES) | Herbicide rating IPOHE ([1]; 0.050 kg/ha) | Herbicide rating IPOHE ([1]; 0.100 kg/ha) | Herbicide rating PANDI ([2]; 0.050 kg/ha) | Herbicide rating PANDI ([2]; 0.100 kg/ha) | Herbicide rating ABUTH ([3]; 0.050 kg/ha) | Herbicide rating ABUTH ([3]; 0.100 kg/ha) | Herbicide rating ABUTH ([4]; 0.050 kg/ha) | Herbicide rating ABUTH ([4]; 0.100 kg/ha) | Herbicide rating AMBEL ([5]; 0.050 kg/ha) | Herbicide rating AMBEL ([5]; 0.100 kg/ha) | Herbicide rating PANDI ([6]; 0.050 kg/ha) | Herbicide rating PANDI ([6]; 0.100 kg/ha) | Herbicide rating ZEAMX (crop injury, corn) ([7]; in vivo) | Herbicide rating AMBEL ([8]; 0.050 kg/ha) | Herbicide rating AMBEL ([8]; 0.100 kg/ha) | Herbicide rating SETVI ([9]; 0.050 kg/ha) | Herbicide rating SETVI ([9]; 0.100 kg/ha) | Herbicide rating SETVI ([10]; 0.050 kg/ha) | Herbicide rating ECHCG ([11]; 0.050 kg/ha) | Herbicide rating ECHCG ([11]; 0.100 kg/ha) | other results |
| --- | --- | --- | --- | --- | --- | --- | --- | --- | --- | --- | --- | --- | --- | --- | --- | --- | --- | --- | --- | --- | --- |
| Cc1c(C(=S)c2cnn(C)c2O)ccc2c1C(C)(C)CS2(=O)=O [Example 3] | 2.0 | 2.0 | 7.0 | 8.0 | 8.0 | 9.0 | 9.0 | 8.0 | 5.5 | 7.0 | 6.5 | 8.0 | 0.0 | 9.0 | 8.0 | 5.0 | 7.0 | 8.0 | 7.0 | 8.5 | Herbicide rating SETVI ([10]; 0.100 kg/ha): 8.0; Herbicide rating ECHCG ([12]; 0.050 kg/ha): 7.0; Herbicide rating ECHCG ([12]; 0.100 kg/ha): 9.0 |
| CCn1ncc(C(=S)c2ccc3c(c2C)C(C)(C)CS3(=O)=O)c1O [Example 4] | 1.0 | 1.0 | 3.0 | 9.0 | 6.0 | 9.0 | 4.0 | 7.0 | 2.0 | 9.0 | 2.0 | 7.0 | 0.0 | 8.0 | 8.0 | 3.0 | 3.0 | 4.0 | 2.0 | 9.0 | Herbicide rating IPOHE ([13]; 0.050 kg/ha): 4.0; Herbicide rating IPOHE ([13]; 0.100 kg/ha): 4.0; Herbicide rating SETVI ([10]; 0.100 kg/ha): 7.0; Herbicide rating ECHCG ([12]; 0.050 kg/ha): 8.0; Herbicide rating ECHCG ([12]; 0.100 kg/ha): 8.0 |
| CCCS(=O)(=O)Oc1c(C(=S)c2ccc3c(c2C)/C(=N/OC)CCS3(=O)=O)cnn1CC [Example 5] | – | – | – | – | 9.0 | 9.0 | – | – | 7.0 | 9.0 | 7.0 | 7.0 | – | – | – | 6.0 | 6.0 | – | 6.0 | 6.0 | Herbicide rating ZEAMX (crop injury, corn) ([7]; preemergence, 0.050 kg/ha, rated about 2-4 weeks after treatment, scale 0-9): 0.0; Herbicide rating ZEAMX (crop injury, corn) ([7]; preemergence, 0.100 kg/ha, rated about 2-4 weeks after treatment, scale 0-9): 0.0; Herbicide rating ZEAMX (crop injury, corn) ([14]; 0.050 kg/ha): 0.0; Herbicide rating ZEAMX (crop injury, corn) ([14]; 0.100 kg/ha): 3.0 |

— patent publication US6413913B1, “Thiono-thiochroman and -dihydrobenzothiophene compounds as herbicidal agents” (BASF Corporation, priority 1999, dated 2002)
